Measured values reported in patent publication US20130150363A1, “Method of Treating Cancer Using a cMET and AXL Inhibitor and an ErbB Inhibitor” (GlaxoSmithKline, priority 2008, published 2013).

Legend:
Type in all cases: cell-based
[1] = tested on: KPL-4 breast cancer cells; assay: Cell growth inhibition (CellTiter-Glo), KPL-4; details: Homo sapiens, KPL4, 72 h, 3 days
From the text: (§1) Esophageal carcinoma cell line OE33 was purchased from ECACC European Collection of Cell Cultures (UK). Breast cancer cell line JIMT-1 and gastric carcinoma cell line MKN-45 were purchased from Deutsche Sammlung von Mikroorganismen and Zellkulturen GmbH (Germany); KPL-4, a human breast cancer cell line was kindly provided by Prof. J Kurebayashi (Kawasaki Medical School, Kurashiki, Japan). […] The LICR-LON-HN5 head and neck carcinoma cell line (HN5) was a gift from the Institute of Cancer Research, Surrey, U.K. HN5C12 was developed by single-cell cloning of HN5 followed by exposure to increasing concentrations of lapatinib. […] Cell growth inhibition was determined via CellTiter-Glo cell viability assays. […] BT474-J4 and HN5C12 were washed with PBS and plated in their culture media without lapatinib. […] ATP levels were determined by adding Cell Titer Glo0 (Promega), incubating for 20 minutes then the luminescent signal was read on the SpectraMax M5 plate with a 0.5 second integration time. Cell growth was calculated relative to vehicle (DMSO) treated control wells. […] y=([…]) where A is the minimum response (ymin), B is the maximum response (ymax), c is the inflection point of the curve (EC50), d is the Hill coefficient, and x is the log10 compound concentration (moles/L). CI values were calculated with the interpolated IC50 values and the mutually non-exclusive equation derived by Chou and […](a)+Db/IC50(b)+(Da×Db)/(IC50(a)×IC50(b)) where IC50(a) is the IC50 of the inhibitor A; IC50(b) is the IC50 for the inhibitor B; […] Excess Over Highest Single Agent (EOHSA) is defined as a statistically significant improvement in the combination compared to the component monotherapies. […] See Borisy et al. (2003) or Hung et al. (1993) for examples and discussion. Analysis was conducted using two-factor analysis of variance with interaction (model terms were dose of drug A, dose of drug B, and interaction between doses of drug A and B), followed by linear contrasts between each combination group and corresponding monotherapies. Analysis was conducted using SAS (version 9, provided by SAS Institute, Cary, N.C.). EOHSA at each dose was calculated as the minimum difference in average % inhibition between the combination and each monotherapy, from the appropriate ANOVA contrast. Since there are many comparisons for the % inhibition endpoint, p-value adjustment for multiple comparisons was performed. Hommel's procedure was implemented in order to improve the power while retaining […] Error Rate (FWE) control by using a sequentially rejective method. The p-values for both synergy and antagonism were calculated using this adjustment.

[2] = tested on: NCI-H1573 lung carcinoma cells; assay: Cell growth inhibition (CellTiter-Glo), NCI-H1573; details: Homo sapiens, NCI-H1573, 72 h, 3 days
From the text: (§2) Esophageal carcinoma cell line OE33 was purchased from ECACC European Collection of Cell Cultures (UK). Breast cancer cell line JIMT-1 and gastric carcinoma cell line MKN-45 were purchased from Deutsche Sammlung von Mikroorganismen and Zellkulturen GmbH (Germany); KPL-4, a human breast cancer cell line was kindly provided by Prof. J Kurebayashi (Kawasaki Medical School, Kurashiki, Japan). […] The LICR-LON-HN5 head and neck carcinoma cell line (HN5) was a gift from the Institute of Cancer Research, Surrey, U.K. HN5C12 was developed by single-cell cloning of HN5 followed by exposure to increasing concentrations of lapatinib. […] Cell growth inhibition was determined via CellTiter-Glo cell viability assays. […] BT474-J4 and HN5C12 were washed with PBS and plated in their culture media without lapatinib. […] ATP levels were determined by adding Cell Titer Glo0 (Promega), incubating for 20 minutes then the luminescent signal was read on the SpectraMax M5 plate with a 0.5 second integration time. Cell growth was calculated relative to vehicle (DMSO) treated control wells. […] Excess Over Highest Single Agent (EOHSA) is defined as a statistically significant improvement in the combination compared to the component monotherapies. […] Analysis was conducted using two-factor analysis of variance with interaction (model terms were dose of drug A, dose of drug B, and interaction between doses of drug A and B), followed by linear contrasts between each combination group and corresponding monotherapies. Analysis was conducted using SAS (version 9, provided by SAS Institute, Cary, N.C.). EOHSA at each dose was calculated as the minimum difference in average % inhibition between the combination and each monotherapy, from the appropriate ANOVA contrast. Since there are many comparisons for the % inhibition endpoint, p-value adjustment for multiple comparisons was performed. Hommel's procedure was implemented in order to improve the power while retaining […] Error Rate (FWE) control by using a sequentially rejective method. The p-values for both synergy and antagonism were calculated using this adjustment.

[3] = tested on: Detroit 562 head and neck squamous cell carcinoma cells; assay: Cell growth inhibition (CellTiter-Glo), Detroit 562; details: Homo sapiens, Detroit 562, 72 h, 3 days
From the text: as §1

[4] = tested on: NCI-H1648 lung carcinoma cells; assay: Cell growth inhibition (CellTiter-Glo), NCI-H1648; details: Homo sapiens, NCI-H1648, 72 h, 3 days
From the text: as §2

[5] = tested on: HN5 head and neck carcinoma cells; assay: Cell growth inhibition (CellTiter-Glo), HN5; details: Homo sapiens, 72 h, 3 days
From the text: as §1

[6] = tested on: SCC12 head and neck squamous cell carcinoma cells; assay: Cell growth inhibition (CellTiter-Glo), SCC12; details: Homo sapiens, SCC12, 72 h, 3 days
From the text: as §1

[7] = tested on: NCI-H596 lung carcinoma cells; assay: Cell growth inhibition (CellTiter-Glo), NCI-H596; details: Homo sapiens, NCI-H596, 72 h, 3 days
From the text: as §1

[8] = tested on: NCI-H441 lung carcinoma cells; assay: Cell growth inhibition (CellTiter-Glo), NCI-H441; details: Homo sapiens, NCI-H441, 72 h, 3 days
[9] = tested on: A431 epidermal carcinoma cells; assay: Cell growth inhibition (CellTiter-Glo), A431; details: Homo sapiens, A-431, 72 h, 3 days
From the text: as §1

[10] = tested on: SCC15 head and neck squamous cell carcinoma cells; assay: Cell growth inhibition (CellTiter-Glo), SCC15; details: Homo sapiens, SCC-15, 72 h, 3 days
From the text: as §2

| SMILES | IC50 ([1]; breast_KPL4, +HGF (2 ng/mL)) [nM] | IC50 ([1]; breast_KPL4, −HGF) [nM] | IC50 ([2]; lung_H1573, +HGF (2 ng/mL)) [µM] | IC50 ([2]; lung_H1573, −HGF) [µM] | IC50 ([3]; hn_Detroit562, +HGF (2 ng/mL)) [µM] | IC50 ([3]; hn_Detroit562, −HGF) [µM] | IC50 ([4]; lung_H1648, +HGF (2 ng/mL)) [µM] | IC50 ([4]; lung_H1648, −HGF) [µM] | IC50 ([5]; hn_HN5, +HGF (2 ng/mL)) [µM] | IC50 ([5]; hn_HN5, −HGF) [µM] | IC50 ([6]; hn_SCC12, +HGF (2 ng/mL)) [µM] | IC50 ([6]; hn_SCC12, −HGF) [µM] | IC50 ([7]; lung_H596, +HGF (2 ng/mL)) [µM] | IC50 ([7]; lung_H596, −HGF) [µM] | IC50 ([8]; lung_H441, +HGF (2 ng/mL)) [µM] | IC50 ([8]; lung_H441, −HGF) [µM] | IC50 ([9]; skin_A431, +HGF (2 ng/mL)) [µM] | IC50 ([9]; skin_A431, −HGF) [µM] | IC50 ([10]; hn_SCC15, +HGF (2 ng/mL)) [nM] | IC50 ([10]; hn_SCC15, −HGF) [nM] |
| --- | --- | --- | --- | --- | --- | --- | --- | --- | --- | --- | --- | --- | --- | --- | --- | --- | --- | --- | --- | --- |
| C#Cc1cccc(Nc2ncnc3cc(OCCOC)c(OCCOC)cc23)c1 [Erlotinib, N-(3-ethynylphenyl)-6,7-bis{[2-(methyloxy)ethyl]oxy}-4-quinazolinamine] | > 10000 | > 10000 | > 10 | > 10 | > 10 | > 10 | > 10 | > 10 | > 10 | 6.72 | > 10 | > 10 | > 10 | > 10 | > 10 | > 10 | > 10 | 3.22 | 7700 | 1620 |
| CS(=O)(=O)CCNCc1ccc(-c2ccc3ncnc(Nc4ccc(OCc5cccc(F)c5)c(Cl)c4)c3c2)o1 [Lapatinib, N-(3-chloro-4-{[(3-fluorophenyl)methyl]oxy}phenyl)-6-[5-({[2-(methylsulfonyl)ethyl]amino}methyl)-2-furanyl]-4-quinazolinamine] | 890 | 1000 | > 10 | 9.83 | 4.64 | 4.02 | > 10 | 7.39 | 3.69 | 2.37 | > 10 | > 10 | > 10 | > 10 | > 10 | > 10 | 4.6 | 2.19 | 3810 | 1080 |
